Data published in the supplement of paper PMC11061612.

Key:
Capivasertib = compound: C1CN(CCC1(C(=O)N[C@@H](CCO)C2=CC=C(C=C2)Cl)N)C3=NC=NC4=C3C=CN4 [Capivasertib]; conditions: max 10 µM
In short: (§1)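 Cancer cell lines in 1536-well plates (7.5 μl DMEM/F12 or RPMI, 10% FBS) were held 24 hours at 37°C and 5% CO2 and then dosed for 72 hours at a final DMSO of typically 0.2%. Viability was taken from CellTiter-Glo 2.0 luminescence, scaled between blank-well and DMSO-well means. Curves were fitted as two-parameter logistic models with a non-linear mixed effects model, from which the single-agent IC50 was taken.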

AZD1775 = compound: C=CCn1c(=O)c2cnc(Nc3ccc(N4CCN(C)CC4)cc3)nc2n1-c1cccc(C(C)(C)O)n1 [AZD1775]; conditions: max 3 µM
In short: as §1

Trametinib = compound: CC(=O)Nc1cccc(-n2c(=O)n(C3CC3)c(=O)c3c(Nc4ccc(I)cc4F)n(C)c(=O)c(C)c32)c1 [Trametinib]; conditions: max 1 µM
In short: as §1

Palbociclib = compound: CC(=O)c1c(C)c2cnc(Nc3ccc(N4CCNCC4)cn3)nc2n(C2CCCC2)c1=O [Palbociclib]; conditions: max 10 µM
In short: as §1

AZD1390 = compound: CC(C)n1c(=O)n(C)c2cnc3cc(F)c(-c4ccc(OCCCN5CCCCC5)nc4)cc3c21 [AZD1390]; conditions: max 0.3 µM
In short: as §1

Venetoclax = compound: CC1(C)CCC(CN2CCN(c3ccc(C(=O)NS(=O)(=O)c4ccc(NCC5CCOCC5)c([N+](=O)[O-])c4)c(Oc4cnc5[nH]ccc5c4)c3)CC2)=C(c2ccc(Cl)cc2)C1 [Venetoclax]; conditions: max 1 µM
In short: as §1

Dasatinib = compound: CC1=C(C(=CC=C1)Cl)NC(=O)C2=CN=C(S2)NC3=CC(=NC(=N3)C)N4CCN(CC4)CCO [Dasatinib]; conditions: max 2 µM
In short: as §1

SG3199 = compound: CC1=CN2[C@@H](C1)C=NC3=CC(=C(C=C3C2=O)OC)OCCCCCOC4=C(C=C5C(=C4)N=C[C@@H]6CC(=CN6C5=O)C)OC [SG3199]; conditions: max 0.001 µM
In short: as §1

AZD2811 = compound: CCN(CCO)CCCOc1ccc2c(Nc3cc(CC(=O)Nc4cccc(F)c4)[nH]n3)ncnc2c1 [AZD2811]; conditions: max 1 µM
In short: as §1

SN-38 = compound: CCc1c2c(nc3ccc(O)cc13)-c1cc3c(c(=O)n1C2)COC(=O)[C@]3(O)CC [SN-38]; conditions: max 0.3 µM
In short: as §1

AZD0156 = compound: CN(C)CCCOc1ccc(-c2ccc3ncc4c(c3c2)n(C2CCOCC2)c(=O)n4C)cn1 [AZD0156]; conditions: max 3 µM
In short: as §1

AZD4320 = compound: CN(CC[C@H](CSC1=CC=CC=C1)NC2=C(C=C(C=C2)S(=O)(=O)NC(=O)C3=CC=C(C=C3)N4CCC(CC4)[C@H](C5=CC=CC=C5C6=CC=C(C=C6)Cl)O)S(=O)(=O)C(F)(F)F)CCO [AZD4320]; conditions: max 1 µM
In short: as §1

Alisertib = compound: COc1cc(Nc2ncc3c(n2)-c2ccc(Cl)cc2C(c2c(F)cccc2OC)=NC3)ccc1C(=O)O [Alisertib]; conditions: max 10 µM
In short: as §1

Gefitinib = compound: COc1cc2ncnc(Nc3ccc(F)c(Cl)c3)c2cc1OCCCN1CCOCC1 [Gefitinib]; conditions: max 10 µM
In short: as §1

Prexasertib = compound: COc1cccc(OCCCN)c1-c1cc(Nc2cnc(C#N)cn2)n[nH]1 [Prexasertib]; conditions: max 1 µM
In short: as §1

Doxorubicin = compound: COc1cccc2c1C(=O)c1c(O)c3c(c(O)c1C2=O)C[C@@](O)(C(=O)CO)C[C@@H]3O[C@H]1C[C@H](N)[C@H](O)[C@H](C)O1 [Doxorubicin]; conditions: max 1 µM
In short: as §1

AZD5153 = compound: COc1nnc2ccc(N3CCC(c4ccc(OCCN5CCN(C)C(=O)[C@H]5C)cc4)CC3)nn12 [AZD5153]; conditions: max 1 µM
In short: as §1

Lapatinib = compound: CS(=O)(=O)CCNCc1ccc(-c2ccc3ncnc(Nc4ccc(OCc5cccc(F)c5)c(Cl)c4)c3c2)o1 [Lapatinib]; conditions: max 10 µM
In short: as §1

AZD8186 = compound: C[C@@H](Nc1cc(F)cc(F)c1)c1cc(C(=O)N(C)C)cc2c(=O)cc(N3CCOCC3)oc12 [AZD8186]; conditions: max 3 µM
In short: as §1

Crizotinib = compound: C[C@@H](Oc1cc(-c2cnn(C3CCNCC3)c2)cnc1N)c1c(Cl)ccc(F)c1Cl [Crizotinib]; conditions: max 10 µM
In short: as §1

Savolitinib = compound: C[C@@H](c1ccc2nccn2c1)n1nnc2ncc(-c3cnn(C)c3)nc21 [Savolitinib]; conditions: max 1 µM
In short: as §1

AZD6738 = compound: C[C@@H]1COCCN1C2=NC(=NC(=C2)C3(CC3)[S@](=N)(=O)C)C4=C5C=CNC5=NC=C4 [AZD6738]; conditions: max 10 µM
In short: as §1

AZD5991 = compound: Cc1c2c(nn1C)CSCc1cc(n(C)n1)CSc1cc(c3ccccc3c1)OCCCc1c(C(=O)O)n(C)c3c-2c(Cl)ccc13 [AZD5991]; conditions: max 1 µM
In short: as §1

AZD7648 = compound: Cc1cc2ncnn2cc1Nc1ncc2c(n1)n(C1CCOCC1)c(=O)n2C [AZD7648]; conditions: max 10 µM
In short: as §1

Taselisib = compound: Cc1nc(-c2cn3c(n2)-c2ccc(-c4cnn(C(C)(C)C(N)=O)c4)cc2OCC3)n(C(C)C)n1 [Taselisib]; conditions: max 10 µM
In short: as §1

Selumetinib = compound: Cn1cnc2c(F)c(Nc3ccc(Br)cc3Cl)c(C(=O)NOCCO)cc21 [Selumetinib]; conditions: max 10 µM
In short: as §1

Olaparib = compound: O=C(c1cc(Cc2n[nH]c(=O)c3ccccc23)ccc1F)N1CCN(C(=O)C2CC2)CC1 [Olaparib]
In short: as §1

Cell Line	IC50, cell viability 72 h (Capivasertib)	IC50, cell viability 72 h (AZD1775)	IC50, cell viability 72 h (Trametinib)	IC50, cell viability 72 h (Palbociclib)	IC50, cell viability 72 h (AZD1390)	IC50, cell viability 72 h (Venetoclax)	IC50, cell viability 72 h (Dasatinib)	IC50, cell viability 72 h (SG3199)	IC50, cell viability 72 h (AZD2811)	IC50, cell viability 72 h (SN-38)	IC50, cell viability 72 h (AZD0156)	IC50, cell viability 72 h (AZD4320)	IC50, cell viability 72 h (Alisertib)	IC50, cell viability 72 h (Gefitinib)	IC50, cell viability 72 h (Prexasertib)	IC50, cell viability 72 h (Doxorubicin)	IC50, cell viability 72 h (AZD5153)	IC50, cell viability 72 h (Lapatinib)	IC50, cell viability 72 h (AZD8186)	IC50, cell viability 72 h (Crizotinib)	IC50, cell viability 72 h (Savolitinib)	IC50, cell viability 72 h (AZD6738)	IC50, cell viability 72 h (AZD5991)	IC50, cell viability 72 h (AZD7648)	IC50, cell viability 72 h (Taselisib)	IC50, cell viability 72 h (Selumetinib)	IC50, cell viability 72 h (Olaparib; max 10 µM)	IC50, cell viability 72 h (Olaparib; max 3 µM)
EVSA-T (Breast Carcinoma)	289 nM	> 3000 nM	> 1000 nM	> 10000 nM	> 300 nM	> 1000 nM	> 2000 nM	> 1 nM	> 1000 nM	> 300 nM	> 3000 nM	> 1000 nM	6350 nM	> 10000 nM	> 1000 nM	> 1000 nM	65.2 nM	4490 nM	199 nM	3360 nM	> 1000 nM	> 10000 nM	56.1 nM	> 10000 nM	1050 nM	> 10000 nM	> 10000 nM	
KM12 (Colorectal Carcinoma)	2280 nM	454 nM	35.6 nM	1170 nM	> 300 nM	> 1000 nM	> 2000 nM	> 1 nM	> 1000 nM	90.8 nM	> 3000 nM	> 1000 nM	1110 nM	> 10000 nM	66.6 nM	357 nM	287 nM	> 10000 nM	> 3000 nM	271 nM	> 1000 nM	5540 nM	> 1000 nM	> 10000 nM	7180 nM	1300 nM	> 10000 nM	
LN-18 (Glioblastoma)	> 10000 nM	> 3000 nM	> 1000 nM	> 10000 nM	> 300 nM	> 1000 nM	> 2000 nM	> 1 nM	> 1000 nM	138 nM	> 3000 nM	> 1000 nM	1400 nM	> 10000 nM	209 nM	> 1000 nM	342 nM	9520 nM	2530 nM	> 10000 nM	> 1000 nM	8830 nM	> 1000 nM	> 10000 nM	5680 nM	> 10000 nM	> 10000 nM	
SU-DHL-8 (B-Cell Non-Hodgkin's Lymphoma)	> 10000 nM	155 nM	> 1000 nM	> 10000 nM	> 300 nM	> 1000 nM	> 2000 nM	> 1 nM	> 1000 nM	3.04 nM	> 3000 nM	38.7 nM	6600 nM	> 10000 nM	7.48 nM	107 nM	684 nM	> 10000 nM	> 3000 nM	> 10000 nM	> 1000 nM	2060 nM	144 nM	> 10000 nM	> 10000 nM	> 10000 nM	> 10000 nM	
MEL-JUSO (Melanoma)	> 10000 nM	> 3000 nM	430 nM	> 10000 nM	> 300 nM	> 1000 nM	> 2000 nM	> 1 nM	> 1000 nM	> 300 nM	> 3000 nM	> 1000 nM	> 10000 nM	> 10000 nM	125 nM	> 1000 nM	> 1000 nM	> 10000 nM	> 3000 nM	> 10000 nM	> 1000 nM	> 10000 nM	> 1000 nM	> 10000 nM	> 10000 nM	> 10000 nM	> 10000 nM	
MS751 (Cervical Carcinoma)	> 10000 nM	1620 nM	> 1000 nM	> 10000 nM	> 300 nM	> 1000 nM	> 2000 nM	> 1 nM	> 1000 nM	36.8 nM	> 3000 nM	> 1000 nM	1130 nM	> 10000 nM	> 1000 nM	> 1000 nM	200 nM	> 10000 nM	> 3000 nM	> 10000 nM	> 1000 nM	> 10000 nM	222 nM	> 10000 nM	> 10000 nM	> 10000 nM	> 10000 nM	
P12-ICHIKAWA (T-Lymphoblastic Leukemia)	3170 nM	262 nM	> 1000 nM	1600 nM	> 300 nM	> 1000 nM	> 2000 nM		15.4 nM	1.61 nM	> 3000 nM	37.3 nM	38.1 nM	> 10000 nM	17.3 nM		89.1 nM	> 10000 nM	> 3000 nM	2230 nM	> 1000 nM	1020 nM	252 nM	> 10000 nM	> 10000 nM	> 10000 nM		> 3000 nM
KCL-22 (Chronic Myelogenous Leukemia)	> 10000 nM	525 nM	915 nM	> 10000 nM	> 300 nM	> 1000 nM	< 2 nM	> 1 nM	> 1000 nM	37.9 nM	> 3000 nM	> 1000 nM	8160 nM	> 10000 nM	13.8 nM	335 nM	273 nM	> 10000 nM	> 3000 nM	2010 nM	> 1000 nM	927 nM	369 nM	> 10000 nM	> 10000 nM	> 10000 nM	> 10000 nM	
